Measurements: patent US7482488B2, “Aryl and heteroaryl propene amides, derivatives thereof and therapeutic uses thereof” (Temple University - Of The Commonwealth System of Higher …, priority 2002, dated 2009)

Legend:
Type in all cases: cell-based, human
DU145 (prostate cancer) = experiment: Effect on tumor cell lines: viable cell count by trypan blue exclusion, DU145; details: DU145 prostate cancer cells; 100 nM to 10 μM; viable cells counted 96 hours after treatment
Description: (§1) The effect of the aromatic acrylamides on normal fibroblasts and on tumor cells was determined by the assay described by Latham et al.,Oncogene 12:827-837 (1996). Normal diploid lung human fibroblasts (HFL-1) or tumor cells (BT20(breast cancer), DLD1 (colorectal cancer), DU145 (prostate cancer and K562 (chronic myelogenous leukemia )) were plated in 6-well dishes at a cell density of 1.0 ×10^5cells per 35-mm^2 well. The plated cells were treated 24 hours later with a compound of the invention, dissolved in DMSO at multiple concentrations ranging from 100 nM to 10 μM. The total number of viable cells was determined 96 hours later by trypsinizing the wells and counting the number of viable cells, as determined by trypan blue exclusion, using a hemacytometer. Normal HFL cells were treated with the same compounds under the same conditions of concentration and time.
(§2) Representative examples of activities of compounds of the invention in cell lines: BT20(breast cancer), DLD1 (colorectal cancer), DU145 (prostate cancer and K562 (chronic myelogenous leukemia ) are listed in Table 5.

[1] = system: K562 (chronic myelogenous leukemia); experiment: Effect on tumor cell lines: viable cell count by trypan blue exclusion, K562; details: K562 chronic myelogenous leukemia cells; 100 nM to 10 μM; viable cells counted 96 hours after treatment
Description: as §1, §2

BT20 (breast cancer) = experiment: Effect on tumor cell lines: viable cell count by trypan blue exclusion, BT20; details: BT20 breast cancer cells; 100 nM to 10 μM; viable cells counted 96 hours after treatment
Description: as §1, §2

DLD1 (colorectal cancer) = experiment: Effect on tumor cell lines: viable cell count by trypan blue exclusion, DLD1; details: DLD1 colorectal cancer cells; 100 nM to 10 μM; viable cells counted 96 hours after treatment
Description: as §1, §2

Structure (SMILES)	DU145 activity (DU145 (prostate cancer))	K562 activity [1]	BT20 activity (BT20 (breast cancer))	DLD1 activity (DLD1 (colorectal cancer))
COc1cc(OC)c(/C=C/C(=O)Nc2ccc(OC)c(O)c2)c(OC)c1 [Example 11, (E)-N-(3-Hydoxy-4-methoxyphenyl)-3-(2,4,6-trimethoxyphenyl)-2-propenamide]	++++ (++++ denotes activity at <100 nm)	++++ (++++ denotes activity at <100 nm)	++++ (++++ denotes activity at <100 nm)	++++ (++++ denotes activity at <100 nm)
COc1ccc(NC(=O)/C=C/c2c(OC)cc(OC)cc2OC)cc1 [Example 1, (E)-N-(4-Methoxyphenyl)-3-(2,4,6-trimethoxyphenyl)-2-propen-amide]	+++ (+++ denotes activity at 100 nM)	+++ (+++ denotes activity at 100 nM)	+++ (+++ denotes activity at 100 nM)	+++ (+++ denotes activity at 100 nM)
COc1ccc(NC(=O)/C=C/c2c(OC)cccc2OC)cc1 [Example 2, (E)-N-(4-Methophenyl)-3-(2,6-dimethoxypheyl)-2-propenamide]	+ (+ denotes activity at >10 μM)	+ (+ denotes activity at >10 μM)	+ (+ denotes activity at >10 μM)	+ (+ denotes activity at >10 μM)
COc1cc(/C=C/C(=O)Nc2ccc(Br)cc2)ccc1F [Example 12, (E)-N-(4-Bromophenyl)-3-(3-methoxy-4fluorophenyl)-2-propenamide]	++ (++ denotes activity at 10 μM)	++ (++ denotes activity at 10 μM)	++ (++ denotes activity at 10 μM)	++ (++ denotes activity at 10 μM)
COc1cc(OC)c(/C=C/C(=O)Nc2ccc(OC)c(N)c2)c(OC)c1 [Example 6, (E)-N-(4-methoxy-3-aminophenyl)-3-(2,4,6-trimethoxyphenyl)-2-propenamide]	+++ (+++ denotes activity at 100 nM)	+++ (+++ denotes activity at 100 nM)	+++ (+++ denotes activity at 100 nM)	+++ (+++ denotes activity at 100 nM)
N#Cc1cc(/C=C/C(=O)Nc2ccc(Br)cc2)ccc1F [Example 13, (E)-N-(4-Bromophenyl)-3-(3-cyano-4-fluorophenyl)-2-propenamide]	++ (++ denotes activity at 10 μM)	++ (++ denotes activity at 10 μM)	++ (++ denotes activity at 10 μM)	++ (++ denotes activity at 10 μM)
COc1cc(OC)c(/C=C/C(=O)Nc2ccc(OC)c(NC(=O)C(F)(F)F)c2)c(OC)c1 [Example 10, (E)-N-(4-Methoxy-3-trifluoroacetamidophenyl)-3-(2,4,6-trimethoxyphenyl)-2-propenamide]	+++ (+++ denotes activity at 100 nM)	+++ (+++ denotes activity at 100 nM)	+++ (+++ denotes activity at 100 nM)	+++ (+++ denotes activity at 100 nM)
COc1ccc(NC(=O)/C=C/c2c(F)c(F)c(F)c(F)c2F)cc1[N+](=O)[O-] [Example 7, (E)-N-(4-Methoxy-3-nitrophenyl)-3-(2,3,4,5,6-pentafluorophenyl)-2-propenamide]	++ (++ denotes activity at 10 μM)	++ (++ denotes activity at 10 μM)	++ (++ denotes activity at 10 μM)	++ (++ denotes activity at 10 μM)
COc1ccc(NC(=O)/C=C/c2ccc(N)c(F)c2)cc1N [Example 9, (E)-N-(4-Methoxy-3-aminophenyl)-3-(3-fluoro-4-aminophenyl)-2-propenamide]	++ (++ denotes activity at 10 μM)	++ (++ denotes activity at 10 μM)	++ (++ denotes activity at 10 μM)	++ (++ denotes activity at 10 μM)
COc1ccc(NC(=O)/C=C/c2cc(OC)c(OC)c(OC)c2)cc1N [Example 4, (E)-N-(4-Methoxy-3-aminophenyl)-3-(3,4,5-trimethoxyphenyl)-2-propenamide]	+ (+ denotes activity at >10 μM)	+ (+ denotes activity at >10 μM)	+ (+ denotes activity at >10 μM)	+ (+ denotes activity at >10 μM)
